Measured values taken from the supplement of paper PMC4862054.
Blank lines part the entries; values can stand above or below the compound they belong to.

Legend:
Details in all cases: 72 h
CAL-51 [1] = tested on: CAL-51
Procedure: (§1)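 Drug sensitivity and resistance testing (DSRT) of breast cancer cell lines in 384-well plates, 5 concentrations in 10-fold dilutions over a compound-specific 10,000-fold range. After 72 h, cytotoxicity was read by CellTox Green fluorescence and viability by CellTiter-Glo luminescence (multiplexed), normalised to DMSO and benzethonium chloride controls. EC50 is the inflection point of the fitted dose-response curve (bottom asymptote free, so it can be relative for partial curves) and is censored at the highest tested concentration. Rows with DSS 0 (no meaningful response) were excluded.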

MDA-MB-468 [2] = tested on: MDA-MB-468
Procedure: as §1

CAL-120 [3] = tested on: CAL-120
Procedure, shortened: (§2)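 Breast cancer cell lines (20 µl suspension) were seeded into 384-well plates holding compound at 5 concentrations in 10-fold steps over a compound-specific 10,000-fold range, then incubated 72 h. Cell death was read first by CellTox Green fluorescence (485/520 nm), then viability by CellTiter-Glo luminescence after 10 min at room temperature. Each plate was normalised to 0.1 % DMSO and a positive kill control. EC50 was fitted from the dose-response curves and censored at the top concentration.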

CAL-85-1 [4] = tested on: CAL-85-1
Procedure, shortened: as §2

HCC1143 [5] = tested on: HCC1143
Procedure, shortened: as §2

HCC1599 [6] = tested on: HCC1599
Procedure, shortened: as §2

MCF-10A [7] = tested on: MCF-10A
Procedure, shortened: as §2

MDA-MB-453 [8] = tested on: MDA-MB-453
Procedure, shortened: as §2

SK-BR-3 [9] = tested on: SK-BR-3
Procedure, shortened: as §2

MDA-MB-231 [10] = tested on: MDA-MB-231
Procedure: as §1

MDA-MB-436 [11] = tested on: MDA-MB-436
Procedure: as §1

CAL-85-1 [12] = tested on: CAL-85-1; remark: listed apart in the source
Procedure, shortened: (§3)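 Each 384-well plate was pre-loaded with compound dissolved in 5 µl medium, received breast cancer cells in 20 µl suspension, and was incubated 72 h. A 2.5 µl addition of CellTiter-Blue for 2 h at 37 °C was followed by a fluorescence read at 560/590 nm. Data were normalised per plate to vehicle and a positive kill control and checked by Z'-factor. EC50 was fitted from the percent-inhibition dose-response curve, censored at the highest concentration, excluding rows with a drug sensitivity score of zero.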

HDQ-P1 [13] = tested on: HDQ-P1
Procedure, shortened: as §3

BT-474 [14] = tested on: BT-474
Procedure, shortened: as §3

BT-549 [15] = tested on: BT-549
Procedure, shortened: as §3

HCC1143 [16] = tested on: HCC1143; remark: listed apart in the source
Procedure, shortened: as §3

HCC1599 [17] = tested on: HCC1599; remark: listed apart in the source
Procedure, shortened: as §3

HCC1937 [18] = tested on: HCC1937
Procedure, shortened: as §3

Hs578T [19] = tested on: Hs578T
Procedure, shortened: as §3

SK-BR-3 [20] = tested on: SK-BR-3; remark: listed apart in the source
Procedure, shortened: as §3

BT-549 [21] = tested on: BT-549; remark: listed apart in the source
Procedure, shortened: as §2

CAL-148 = tested on: CAL-148
Procedure, shortened: as §2

CAL-51 [22] = tested on: CAL-51; remark: listed apart in the source
Procedure, shortened: as §2

DU-4475 [23] = tested on: DU-4475
Procedure, shortened: as §2

HCC1937 [24] = tested on: HCC1937; remark: listed apart in the source
Procedure, shortened: as §2

Hs578T [25] = tested on: Hs578T; remark: listed apart in the source
Procedure, shortened: as §2

MDA-MB-231 [26] = tested on: MDA-MB-231; remark: listed apart in the source
Procedure, shortened: as §2

MDA-MB-436 [27] = tested on: MDA-MB-436; remark: listed apart in the source
Procedure, shortened: as §2

MFM-223 [28] = tested on: MFM-223
Procedure, shortened: as §2

BT-474 [29] = tested on: BT-474; remark: listed apart in the source
Procedure: as §1

BT-549 [30] = tested on: BT-549; remark: listed apart in the source
Procedure: as §1

CAL-85-1 [31] = tested on: CAL-85-1; remark: listed apart in the source
Procedure: as §1

DU-4475 [32] = tested on: DU-4475; remark: listed apart in the source
Procedure: as §1

HCC1143 [33] = tested on: HCC1143; remark: listed apart in the source
Procedure: as §1

HCC1599 [34] = tested on: HCC1599; remark: listed apart in the source
Procedure: as §1

HCC1937 [35] = tested on: HCC1937; remark: listed apart in the source
Procedure: as §1

HDQ-P1 [36] = tested on: HDQ-P1; remark: listed apart in the source
Procedure: as §1

Hs578T [37] = tested on: Hs578T; remark: listed apart in the source
Procedure: as §1

MCF-10A [38] = tested on: MCF-10A; remark: listed apart in the source
Procedure: as §1

MDA-MB-453 [39] = tested on: MDA-MB-453; remark: listed apart in the source
Procedure: as §1

MFM-223 [40] = tested on: MFM-223; remark: listed apart in the source
Procedure: as §1

MDA-MB-453 [41] = tested on: MDA-MB-453; remark: listed apart in the source
Procedure, shortened: as §3

CAL-51 [42] = tested on: CAL-51; remark: listed apart in the source
Procedure, shortened: as §3

DU-4475 [43] = tested on: DU-4475; remark: listed apart in the source
Procedure, shortened: as §3

CAL-120 [44] = tested on: CAL-120; remark: listed apart in the source
Procedure, shortened: as §3

MDA-MB-231 [45] = tested on: MDA-MB-231; remark: listed apart in the source
Procedure, shortened: as §3

MDA-MB-468 [46] = tested on: MDA-MB-468; remark: listed apart in the source
Procedure, shortened: as §3

MFM-223 [47] = tested on: MFM-223; remark: listed apart in the source
Procedure, shortened: as §3

CAL-120 [48] = tested on: CAL-120; remark: listed apart in the source
Procedure: as §1

Structure (SMILES): C[C@]12CC[C@@H]3c4ccc(OC(=O)N(CCCl)CCCl)cc4CC[C@H]3[C@@H]1CC[C@@H]2O [Estramustine]
EC50, CellTox Green (CAL-51 [1]): 131 nM | EC50, CellTox Green (MDA-MB-468 [2]): 4990 nM

Structure (SMILES): C[C@]1(O)C[C@@H](c2nc(-c3ccc4ccc(-c5ccccc5)nc4c3)c3c(N)nccn32)C1 [Linsitinib]
EC50, CellTiter-Glo (CAL-120 [3]): 8040 nM | EC50, CellTiter-Glo (CAL-85-1 [4]): 3550 nM | EC50, CellTiter-Glo (HCC1143 [5]): > 10000 nM | EC50, CellTiter-Glo (HCC1599 [6]): 1940 nM | EC50, CellTiter-Glo (MCF-10A [7]): 645 nM | EC50, CellTiter-Glo (MDA-MB-453 [8]): 892 nM | EC50, CellTiter-Glo (SK-BR-3 [9]): 1460 nM | EC50, CellTox Green (MDA-MB-231 [10]): > 10000 nM | EC50, CellTox Green (MDA-MB-436 [11]): 6000 nM

Structure (SMILES): C[C@]1(O)C[C@@H](c2nc(-c3ccc4ccc(-c5ccccc5)nc4c3)c3c(N)nccn32)C1 [OSI-906]
EC50, CellTiter-Blue viability (CAL-85-1 [12]): 7720 nM | EC50, CellTiter-Blue viability (HDQ-P1 [13]): 278 nM | EC50, CellTiter-Blue viability (BT-474 [14]): 1680 nM | EC50, CellTiter-Blue viability (BT-549 [15]): 7100 nM | EC50, CellTiter-Blue viability (HCC1143 [16]): 881 nM | EC50, CellTiter-Blue viability (HCC1599 [17]): 204 nM | EC50, CellTiter-Blue viability (HCC1937 [18]): 9830 nM | EC50, CellTiter-Blue viability (Hs578T [19]): 1910 nM | EC50, CellTiter-Blue viability (SK-BR-3 [20]): 105 nM

Structure (SMILES): CC(=O)c1c(C)c2cnc(Nc3ccc(N4CCNCC4)cn3)nc2n(C2CCCC2)c1=O [Palbociclib]
EC50, CellTiter-Glo (CAL-120 [3]): 409 nM | EC50, CellTiter-Glo (CAL-51 [22]): > 10000 nM | EC50, CellTiter-Glo (Hs578T [25]): > 10000 nM | EC50, CellTiter-Glo (MCF-10A [7]): 1020 nM | EC50, CellTiter-Glo (MFM-223 [28]): 86.9 nM | EC50, CellTiter-Glo (SK-BR-3 [9]): 2240 nM

Structure (SMILES): CC[C@@H]1C(=O)OC[C@@H]1Cc1cncn1C [Pilocarpine]
EC50, CellTiter-Blue viability (MDA-MB-453 [41]): 38300 nM

Structure (SMILES): COc1cc(F)c(F)c(Nc2ccc(I)cc2F)c1NS(=O)(=O)C1(C[C@H](O)CO)CC1 [Refametinib]
EC50, CellTiter-Glo (BT-549 [21]): 2210 nM | EC50, CellTiter-Glo (CAL-120 [3]): 315 nM | EC50, CellTiter-Glo (CAL-148): 6680 nM | EC50, CellTiter-Glo (CAL-85-1 [4]): 840 nM | EC50, CellTiter-Glo (DU-4475 [23]): 63.6 nM | EC50, CellTiter-Glo (HCC1143 [5]): 1620 nM | EC50, CellTiter-Glo (HCC1937 [24]): 5050 nM | EC50, CellTiter-Glo (Hs578T [25]): 6150 nM | EC50, CellTiter-Glo (MCF-10A [7]): 6.98 nM | EC50, CellTiter-Glo (MDA-MB-231 [26]): 429 nM | EC50, CellTiter-Glo (MDA-MB-436 [27]): 6630 nM | EC50, CellTiter-Glo (MFM-223 [28]): 6030 nM | EC50, CellTox Green (CAL-120 [48]): > 10000 nM | EC50, CellTox Green (CAL-85-1 [31]): 788 nM | EC50, CellTox Green (DU-4475 [32]): 110 nM | EC50, CellTox Green (MDA-MB-231 [10]): 23.2 nM | EC50, CellTox Green (MDA-MB-468 [2]): 2690 nM

Now from value to compound, other results behind:

EC50, CellTiter-Glo (BT-549 [21]): 39 nM | EC50, CellTiter-Glo (HCC1143 [5]): 51.3 nM | EC50, CellTiter-Glo (HCC1599 [6]): 87.2 nM | EC50, CellTiter-Glo (HCC1937 [24]): 48.5 nM | EC50, CellTiter-Glo (MDA-MB-231 [26]): 27.6 nM | EC50, CellTiter-Glo (MDA-MB-436 [27]): 29.8 nM | EC50, CellTiter-Glo (MDA-MB-453 [8]): 98.6 nM | EC50, CellTiter-Glo (SK-BR-3 [9]): 26.8 nM
Structure (SMILES): Cc1ccc([N+](=O)[O-])cc1S(=O)(=O)N(C)/N=C/c1cnc2ccc(Br)cn12 [PIK-75]
EC50, CellTiter-Glo (CAL-120 [3]): 29.2 nM | EC50, CellTiter-Glo (CAL-148): 21.1 nM | EC50, CellTiter-Glo (CAL-51 [22]): 21.3 nM | EC50, CellTiter-Glo (CAL-85-1 [4]): 30.6 nM | EC50, CellTiter-Glo (DU-4475 [23]): 35.2 nM | EC50, CellTiter-Glo (Hs578T [25]): 35.4 nM | EC50, CellTiter-Glo (MCF-10A [7]): 45.7 nM | EC50, CellTiter-Glo (MFM-223 [28]): 52.1 nM | EC50, CellTox Green (BT-474 [29]): 161 nM | EC50, CellTox Green (BT-549 [30]): 274 nM | EC50, CellTox Green (CAL-51 [1]): 6.21 nM | EC50, CellTox Green (CAL-85-1 [31]): 31.6 nM | EC50, CellTox Green (DU-4475 [32]): 23.8 nM | EC50, CellTox Green (HCC1143 [33]): 182 nM | EC50, CellTox Green (HCC1599 [34]): 33.9 nM | EC50, CellTox Green (HCC1937 [35]): 6400 nM | EC50, CellTox Green (HDQ-P1 [36]): 105 nM | EC50, CellTox Green (Hs578T [37]): 42 nM | EC50, CellTox Green (MCF-10A [38]): 16.6 nM | EC50, CellTox Green (MDA-MB-231 [10]): 6.39 nM | EC50, CellTox Green (MDA-MB-453 [39]): 597 nM | EC50, CellTox Green (MDA-MB-468 [2]): 178 nM | EC50, CellTox Green (MFM-223 [40]): 582 nM

EC50, CellTiter-Blue viability (MDA-MB-453 [41]): 4260 nM | EC50, CellTiter-Blue viability (HCC1143 [16]): 159 nM | EC50, CellTiter-Blue viability (HCC1937 [18]): 1310 nM | EC50, CellTiter-Blue viability (MDA-MB-231 [45]): 21.3 nM | EC50, CellTiter-Blue viability (MDA-MB-468 [46]): 7180 nM
Structure (SMILES): COc1cc(F)c(F)c(Nc2ccc(I)cc2F)c1NS(=O)(=O)C1(C[C@H](O)CO)CC1 [RDEA119]
EC50, CellTiter-Blue viability (CAL-51 [42]): 196 nM | EC50, CellTiter-Blue viability (CAL-85-1 [12]): 557 nM | EC50, CellTiter-Blue viability (DU-4475 [43]): 42.6 nM | EC50, CellTiter-Blue viability (HDQ-P1 [13]): 318 nM | EC50, CellTiter-Blue viability (CAL-120 [44]): 585 nM | EC50, CellTiter-Blue viability (Hs578T [19]): 81 nM | EC50, CellTiter-Blue viability (MFM-223 [47]): 2870 nM
